Results as given in patent US10785976B2, “Methods and compositions for environmentally friendly pest control” (BAYER CROPSCIENCE LP, priority 2016, dated 2020).
Counter-ions that a name gives are not always drawn.

Tested on: Aedes aegypti
Assay: Direct spray treatment (pump-sprayer), knock down and/or mortality
Format: in vivo
Method: The efficacy of a non-VOC solvent formulation of the invention was evaluated using a pump-sprayer against Culex quinquefasciatus and Aedes aegypti. The non-VOC solvent formulation of the invention comprising acetyl tributyl citrate (Formulation 1) was applied at a concentration of either 15.75 mg/ml or 31.5 mg/ml from a distance of approximately 15 cm. Controls were sprayed with water. The experiment was replicated five times and ten insects were sprayed per replicate.
Percentage knock-down and/or mortality was determined at three time points: 30 minutes following treatment; 1 hour following treatment; and 24 hours following treatment. The findings are presented below in Tables 4 and 5.
Further studies were conducted using acetyl tributyl citrate as described in Table 6.

Measured: % knock down and/or mortality of Aedes aegypti (out of 10 per replicate) after direct spray treatment

CCCCOC(=O)CC(CC(=O)OCCCC)(OC(C)=O)C(=O)OCCCC [Citroflex A-4, acetyl tributyl citrate]
100%: Many spray pushes pure Citroflex A4 (1 ml), 1 hour | Many spray pushes pure Citroflex A4 (1 ml), 24 hour mortality | One spray push Citroflex 1:1 with tap water, 1 hour | One spray push Citroflex 1:1 with tap water, 24 hour mortality | One spray push pure Citroflex A4 (1 ml), 1 hour | One spray push pure Citroflex A4 (1 ml), 24 hour mortality
